The source of these data is patent USRE44543E1, “Naphthalenic compounds as termite bait toxicants” (priority 2002, dated 2013).

The test system of assay [1] is C. formosanus. The experiment in a line: ARS bait matrix bioassay with NHA sodium salt, protocol of Example 1 (Example 2). It is filed as in vivo, Coptotermes formosanus. Here is the method:
(§1) For bait matrices with a final concentrations of NHA sodium salt of either 250 ppm or 500 ppm, the following procedure was used. A total of 25 mg or 50 mg, respectively of the NHA sodium salt was weighed using a Mettler balance. The NHA sodium salt complex was placed into a 50 ml sterile screw cap conical tube (#62.547.004; Sarstedt, Newton, N.C.) and dissolved with 40 ml nutritive solution described in Example 2 of U.S. patent application Ser. No. 09/294,499 filed Apr. 20, 1999, hereby incorporated by reference. Under a laminar flow hood, this product was mixed with 27 ml more of sterile nutritional supplement in a 250 ml sterile glass bottle (prepared as reported by M. G. Rojas and J. A. Morales-Ramos, April 2001, “Bait matrix for delivery of chitin synthesis inhibitors to the Formosan subterranean termite [Isoptera: Rhinotermitidae],” J. Econ. Entomol. 94(2) :506-510) hereby incorporated by reference. The bottle was tightly closed with a screw cap and manually shaken for 2 minutes. The mixture was added to 33 g of sterile cellulose as reported by Rojas and Morales-Ramos (2001) supra. The mixture was manually homogenized using a stainless steel spatula. To encase the bait matrix, tubes made of fibrous casing material (#124B; L.E.M. Products, Inc., Miamitown, Ohio) were cut into 150 mm long portions as reported by Rojas and Morales-Ramos (2001) supra. Fifty grams of bait matrix containing NHA sodium salt was compacted into one end of the inlet tube, and the open end and of the inlet tube was closed with a rubber band. The bait casing was placed inside of the foraging box adjacent to a 10 g piece of pine wood, taking care that it was partially covered with sand. Control bait matrix was prepared minus NHA, and presented in the same way as the treatment matrix to Formosan termites taken from three different colonies, with two boxes per locality totaling six boxes of 2500 termites per treatment. (Rojas and Morales-Ramos [2001] supra). All the experimental boxes were maintained under dark conditions at 27±1° C., and 90±2% relative humidity. Observations were done every 72 hours until all the termites died. The time to reach 100% mortality was measured and recorded. Mean comparisons among treatments and control were conducted.
N-hydroxynaphthyalimide (NHA) which is commercially available as pure chemical, is dissolved in distilled water using a sterile container; At concentrations of 500 ppm, NHA is effective as bait active ingredient taking a mean time to kill C. formosanus in 2½ months in lab conditions. […]

A further assay has as its system Formosan termites. Put plainly: Foraging box bait matrix bioassay, NHA sodium salt (Example 1). It is filed as in vivo, Coptotermes formosanus. The note with it: 6 boxes of 2500 termite workers. On the procedure: as §1
The next assay relates to Reticulitermes spp. The note with it: low toxicity baits; cited from earlier work.
Assay [2] concerns C. formosanus. The conditions noted are these: low toxicity baits; cited from earlier work.
Assay [3] relates to termites. The conditions noted are these: Grace et al. 1993; cited from earlier work.
The subject of assay [4] is termites. Put plainly: Copper naphthenate laboratory study, ARS bait matrix in foraging boxes. It is filed as in vivo, Coptotermes formosanus. Here is the method:
as §1
Copper naphthenate (Product No. PS-2028, Chem Service, West Chester, Pa.) was dissolved in 90% warm ethanol at 3 different concentrations of 50, 100 and 200 ppm. The ethanol solution was mixed with the liquid part of the ARS bait matrix (see Example 2) and bait was prepared and presented to the termites as above in Example 1 having 4 repetitions per dose and a control. It was observed that at 50 ppm of chemical, all termites in 50% of the boxes died at about 8 weeks; and termites in 75% of the boxes died at about 10 weeks; at 100 ppm all termites died in the boxes at 8 weeks, and at 200 ppm all termites died in all tested boxes at 8 weeks. All termites in the treatments were dead by week 12.

For the compound `O=C1c2cccc3cccc(c23)C(=O)N1[O-].[Na+]` [NHA-sodium salt, N-hydroxynaphthyalimide Sodium Salt], the “repellence to the termites” value in the assay on C. formosanus [1] (500 ppm) was “without any signs of repellence”. Further, the “time to formosan termite mortality” value with C. formosanus [1] (500 ppm, preliminary results, dose range 50, 250, 500 ppm) is listed as “within about two months”. In the assay with C. formosanus [1] (in vivo), the “dose at which repellence was observed” value is listed as “higher than 1500 ppm”. Besides, the “Colonies Alive” value in the assay with Formosan termites (250 ppm in bait matrix, 1 Month of feeding) is 4; in the assay on Formosan termites (250 ppm in bait matrix, 2 Months of feeding), 3; with Formosan termites (250 ppm in bait matrix, 2½ Months of feeding) it was 0; in the assay on Formosan termites (500 ppm in bait matrix, 1 Month of feeding), 3; in the assay with Formosan termites (500 ppm in bait matrix, 2 Months of feeding), 1; with Formosan termites (500 ppm in bait matrix, 2½ Months of feeding), 0.
Turning to `O=C(NC(=O)c1c(F)cccc1F)Nc1ccc(Cl)cc1` [diflubenzuron], the suppressing colonies result in the assay with Reticulitermes spp. and in the assay with C. formosanus [2] was “particularly effective” each time.
`O=C(NC(=O)c1c(F)cccc1F)Nc1cc(Cl)c(OC(F)(F)C(F)F)c(Cl)c1` [hexaflumuron]: the suppressing colonies entry in the assay on Reticulitermes spp. and in the assay on C. formosanus [2] was “particularly effective” in each case.
In the case of Copper naphthenate, the repellence to termites entry in the assay with termites [3] was “highly repellent”. Further, the toxicity to termites result in the assay with termites [3] is “toxic”. In addition, the “week by which all termites in the treatments were dead” value with termites [4] (50, 100 and 200 ppm) is no more than 12 week. The “Percent colonies of 2500 termite workers alive” value with termites [4] (50 ppm, 8 wks after treatment) came out at 50%; in the assay with termites [4] (50 ppm, 10 wks after treatment), 25%; in the assay on termites [4] (50 ppm, 12 wks after treatment), 0%; in the assay on termites [4] (100 ppm, 8 wks after treatment), 0%; in the assay on termites [4] (100 ppm, 10 wks after treatment) it was 0%; in the assay on termites [4] (100 ppm, 12 wks after treatment) it was 0%. Besides, the “Percent colonies of 2500 termite workers alive” value is 0% in the assay on termites [4] (200 ppm, 8 wks after treatment); 0% in the assay on termites [4] (200 ppm, 10 wks after treatment); 0% in the assay with termites [4] (200 ppm, 12 wks after treatment). The “boxes in which all termites died” value turned out to be 50% in the assay on termites [4] (50 ppm, at about 8 weeks) and 75% with termites [4] (50 ppm, at about 10 weeks). Moreover, in the assay on termites [4] (100 ppm), the “time at which all termites died in the boxes” value was determined as 8 weeks. The “time at which all termites died in all tested boxes” value with termites [4] (200 ppm) is listed as 8 weeks. In the assay on termites [4] (200 ppm dose), the “acceptance of the bait and time to kill” value is on record as “great variability”.
